Data as given in patent US8507509B2, “Saturated and insaturated bi- or tricyclic aryloxyacetamine derivatives and their use as fungicides” (Syngenta Crop Protection LLC, priority 2007, dated 2013).

How the values were obtained:
[1] = system: Puccinia recondita f.sp. tritici; assay: Puccinia recondita f.sp. tritici (wheat brown rust), wheat leaf segment assay, preventive; format: in vivo; conditions: foliar, 216 h, 200 ppm, wheat leaf segments, assessed nine days after inoculation, read-out: control of fungal infection, Puccinia recondite f.sp. tritici
Septoria tritici = Septoria tritici (leaf blotch), liquid culture growth inhibition in nutrient broth; format: cell-based; conditions: Zymoseptoria tritici; 200 ppm; PDB broth, 24 C; inhibition of growth determined photometrically after 72 hrs; read-out: control of fungal infection, Septoria tritici
Plasmopara viticola = Plasmopara viticola (downy mildew of grapevine), grapevine leaf disk assay, preventive; format: in vivo; conditions: foliar, 168 h, 200 ppm, grapevine leaf disks, assessed seven days after inoculation, read-out: control of fungal infection, Plasmopara viticola
Phytophthora infestans = assay: whole plant or invertebrate; format: in vivo; conditions: in Solanum lycopersicum, foliar, 96 h, read-out: control of fungal infection, Phytophthora infestans
[2] = system: Erysiphe graminis f.sp. tritici; assay: Erysiphe graminis f.sp. tritici (wheat powdery mildew), wheat leaf segment assay, preventive; format: in vivo; conditions: Blumeria graminis, foliar, 96 h; 200 ppm; wheat leaf segments; assessed four days after inoculation; read-out: control of fungal infection, Etysiphe graminis f.sp. tritici
Septoria nodorum = Septoria nodorum (wheat glume blotch), wheat leaf segment assay, preventive; format: in vivo; conditions: Parastagonospora nodorum, foliar, 96 h; 200 ppm; wheat leaf segments; assessed four days after inoculation; read-out: control of fungal infection, Septoria nodorum
Fusarium culmorum = Fusarium culmorum (root rot), liquid culture growth inhibition in nutrient broth; format: cell-based; conditions: PDB broth, 24 C, inhibition of growth determined photometrically after 48 hrs, read-out: control of fungal infection, Fusarium culmorum
Experimental: Mycelia fragments or conidia suspensions of a fungus, prepared either freshly from liquid cultures of the fungus or from cryogenic storage, are directly mixed into nutrient broth. DMSO solutions of the test compound (max. 10 mg/ml) is diluted with 0.025% Tween20 by factor 50 and 10 μl of this solution is pipetted into a microtiter plate (96-well format) and the nutrient broth containing the fungal spores/mycelia fragments is then added to give an end concentration of the tested compound. The test plates are incubated at 24° C. and 96% rH in the dark. The inhibition of fungal growth is determined photometrically after 2-6 days and antifungal activity is calculated.
Fusarium culmorum (root rot): Conidia of the fungus from cryogenic storage were directly mixed into nutrient broth (PDB potato dextrose broth). After placing a (DMSO) solution of the test compounds into a microtiter plate (96-well format) the nutrient broth containing the fungal spores was added. The test plates were incubated at 24 C and the inhibition of growth was determined photometrically after 48 hrs.

Pythium ultimum = Pythium ultimum (Damping off), liquid culture growth inhibition in potato dextrose broth; format: cell-based; conditions: Globisporangium ultimum; 20 ppm; potato dextrose broth, 24° C.; inhibition of growth determined photometrically after 48 hours; read-out: control of fungal infection, Pythium ultimum
Botrytis cinerea = Botrytis cinerea (grey mould), bean leaf disk assay, preventive; format: in vivo; conditions: foliar, 96 h, 200 ppm, bean leaf disks, assessed four days after inoculation, read-out: control of fungal infection, Botrytis cinerea

CCC(Oc1cc(C)c2ncc(I)cc2c1)C(=O)NC(C)(C)C=NOC (stereo not drawn) [Compound No. 5, 2-(3-Iodo-8-methyl-quinolin-6-yloxy)-N-(2-methoxyimino-1,1-dimethyl-ethyl)-butyramide]
≥ 60%: pest or weed control at 200 ppm [1] | inhibition of growth at 200 ppm (Septoria tritici) | pest or weed control at 200 ppm (Plasmopara viticola) | pest or weed control at 200 ppm (Phytophthora infestans) | pest or weed control at 200 ppm [2] | pest or weed control at 200 ppm (Septoria nodorum)

CO/N=C(\C)C(C)(C)NC(=O)C(Oc1cc(C)c2ncc(Br)cc2c1)SC (stereo not drawn) [Compound No. 32, 2-(3-Bromo-8-methyl-quinolin-6-yloxy)-N-{2-[(E)-methoxyimino]-1,1-dimethyl-propyl}-2-methylsulfanyl-acetamide]
≥ 60%: pest or weed control at 200 ppm [1] | pest or weed control at 200 ppm (Plasmopara viticola) | pest or weed control at 200 ppm (Phytophthora infestans) | inhibition of growth at 200 ppm (Fusarium culmorum) | inhibition of growth at 20 ppm (Pythium ultimum) | pest or weed control at 200 ppm [2]

C#Cc1cnc2ccc(OC(SC)C(=O)NC3(C=NOC)CCC3)cc2c1 (stereo not drawn) [Compound No. 78, 2-(3-ethynyl-quinolin-6-yloxy)-N-[1-(methoxyimino-methyl)-cyclobutyl]-2-methylsulfanyl-acetamide]
≥ 60%: pest or weed control at 200 ppm [1] | inhibition of growth at 200 ppm (Septoria tritici) | pest or weed control at 200 ppm (Plasmopara viticola) | pest or weed control at 200 ppm (Phytophthora infestans) | inhibition of growth at 200 ppm (Fusarium culmorum) | inhibition of growth at 20 ppm (Pythium ultimum) | pest or weed control at 200 ppm (Septoria nodorum)

CON=CC1(NC(=O)C(Oc2ccc3ncc(I)cc3c2)SC)CCC1 (stereo not drawn) [Compound No. 79, 2-(3-Iodo-quinolin-6-yloxy)-N-[1-(methoxyimino-methyl)-cyclobutyl]-2-methylsulfanyl-acetamide]
≥ 60%: pest or weed control at 200 ppm [1] | inhibition of growth at 200 ppm (Septoria tritici) | pest or weed control at 200 ppm (Plasmopara viticola) | pest or weed control at 200 ppm (Phytophthora infestans) | inhibition of growth at 200 ppm (Fusarium culmorum) | inhibition of growth at 20 ppm (Pythium ultimum) | pest or weed control at 200 ppm [2] | pest or weed control at 200 ppm (Septoria nodorum)

CON=CCNC(=O)C(Oc1ccc2ncc(Br)cc2c1)SC (stereo not drawn) [Compound No. 93, 2-(3-Bromo-quinolin-6-yloxy)-N-(2-methoxyimino-ethyl)-2-methylsulfanyl-acetamide]
≥ 60%: pest or weed control at 200 ppm [1] | inhibition of growth at 200 ppm (Septoria tritici) | pest or weed control at 200 ppm (Plasmopara viticola) | pest or weed control at 200 ppm (Phytophthora infestans) | inhibition of growth at 200 ppm (Fusarium culmorum) | pest or weed control at 200 ppm [2] | pest or weed control at 200 ppm (Septoria nodorum)

CON=C(C)C(C)(C)NC(=O)C(Oc1ccc2ncc(Br)cc2c1)SC (stereo not drawn) [Compound No. 111, 2-(3-Bromo-quinolin-6-yloxy)-N-{2-[(E or Z)-methoxyimino]-1,1-dimethyl-propyl}-2-methylsulfanyl-acetamide]
≥ 60%: pest or weed control at 200 ppm [1] | inhibition of growth at 200 ppm (Septoria tritici) | pest or weed control at 200 ppm (Plasmopara viticola) | pest or weed control at 200 ppm (Phytophthora infestans) | inhibition of growth at 200 ppm (Fusarium culmorum) | inhibition of growth at 20 ppm (Pythium ultimum) | pest or weed control at 200 ppm (Septoria nodorum)

C#Cc1cnc2c(C)cc(OC(CC)C(=O)NC(C)(C)C=NOCC=C)cc2c1 (stereo not drawn) [Compound No. 138, N-(2-Allyloxyimino-1,1-dimethyl-ethyl)-2-(3-ethynyl-8-methyl-quinolin-6-yloxy)-butyramide]
≥ 60%: pest or weed control at 200 ppm [1] | inhibition of growth at 200 ppm (Septoria tritici) | pest or weed control at 200 ppm (Plasmopara viticola) | pest or weed control at 200 ppm (Phytophthora infestans) | inhibition of growth at 20 ppm (Pythium ultimum) | pest or weed control at 200 ppm [2] | pest or weed control at 200 ppm (Septoria nodorum)

CC#CCON=CC(C)(C)NC(=O)C(Oc1ccc2ncc(Br)cc2c1)SC (stereo not drawn) [Compound No. 141, 2-(3-Bromo-quinolin-6-yloxy)-N-(2-but-2-ynyloxyimino-1,1-dimethyl-ethyl)-2-methylsulfanyl-acetamide]
≥ 60%: pest or weed control at 200 ppm [1] | inhibition of growth at 200 ppm (Septoria tritici) | pest or weed control at 200 ppm (Plasmopara viticola) | pest or weed control at 200 ppm (Phytophthora infestans) | inhibition of growth at 200 ppm (Fusarium culmorum) | inhibition of growth at 20 ppm (Pythium ultimum) | pest or weed control at 200 ppm [2]

CSC(Oc1ccc2ncc(Br)cc2c1)C(=O)NC(C)(C)C=NOCCF (stereo not drawn) [Compound No. 142, 2-(3-Bromo-quinolin-6-yloxy)-N-[2-(2-fluoro-ethoxyimino)-1,1-dimethyl-ethyl]-2-methylsulfanyl-acetamide]
≥ 60%: pest or weed control at 200 ppm [1] | inhibition of growth at 200 ppm (Septoria tritici) | pest or weed control at 200 ppm (Plasmopara viticola) | pest or weed control at 200 ppm (Phytophthora infestans) | inhibition of growth at 200 ppm (Fusarium culmorum) | inhibition of growth at 20 ppm (Pythium ultimum) | pest or weed control at 200 ppm [2]

CCC(Oc1ccc2ncc(Br)cc2c1)C(=O)NC(C)(C)C=NOC (stereo not drawn) [Compound No. 144, 2-(3-Bromo-quinolin-6-yloxy)-N-(2-methoxyimino-1,1-dimethyl-ethyl)-butyramide]
≥ 60%: pest or weed control at 200 ppm [1] | inhibition of growth at 200 ppm (Septoria tritici) | pest or weed control at 200 ppm (Plasmopara viticola) | pest or weed control at 200 ppm (Phytophthora infestans) | inhibition of growth at 200 ppm (Fusarium culmorum) | pest or weed control at 200 ppm [2]

CCC(Oc1cc(C)c2ncc(Br)cc2c1)C(=O)NC(C)(C)C=NOC (stereo not drawn) [Compound No. 145, 2-(3-Bromo-8-methyl-quinolin-6-yloxy)-N-(2-methoxyimino-1,1-dimethyl-ethyl)-butyramide]
≥ 60%: inhibition of growth at 200 ppm (Septoria tritici) | pest or weed control at 200 ppm (Plasmopara viticola) | pest or weed control at 200 ppm (Phytophthora infestans) | pest or weed control at 200 ppm [2] | pest or weed control at 200 ppm (Botrytis cinerea) | pest or weed control at 200 ppm (Septoria nodorum)

CCC(Oc1ccc2ncc(I)cc2c1)C(=O)NC(C)(C)C=NOCCF (stereo not drawn) [Compound No. 155, N-[2-(2-Fluoro-ethoxyimino)-1,1-dimethyl-ethyl]-2-(3-iodo-quinolin-6-yloxy)-butyramide]
≥ 60%: pest or weed control at 200 ppm [1] | inhibition of growth at 200 ppm (Septoria tritici) | pest or weed control at 200 ppm (Plasmopara viticola) | pest or weed control at 200 ppm (Phytophthora infestans) | inhibition of growth at 200 ppm (Fusarium culmorum) | pest or weed control at 200 ppm [2] | pest or weed control at 200 ppm (Septoria nodorum)
